Experimental findings from PMC6383519 (Cancer immunology, immunotherapy : CII, 2013) are described below.

The test system of experiment [1] is HLA-A2 molecule on T2 cells. The experiment in a line: T2-cell binding. Also noted: species or system human. Conditions: for Actual binding: T2-A2 cells, peptide 12.5 μg/ml, overnight incubation, flow cytometry, mean fluorescence intensity; for T2-A2 binding (rank): ranking among 5 potential MUC1-C agonist epitopes. On the technique in general: Flow cytometry measures light scatter and fluorescence of single cells or particles in a stream.

The test system of experiment [2] is PBMCs of cancer patients. The experiment in a line: Establishment of peptide-specific T-cell lines. The conditions noted are these: PBMCs of vaccinated cancer patients, autologous DCs pulsed with 20 μg/ml peptide. The class given is cell-based, human.
Experiment [3] concerns MUC1 peptide-specific CD8+ T cells. The experiment in a line: Tetramer staining. Format: cell-based, human. Conditions: Supplemental Fig. 3; for binding of T-cell line to corresponding tetramer: HLA-A3 tetramers; for binding of T-cell line to the control tetramer: negative control tetramer.
Experiment [4] deals with C1RA3 cells pulsed with the corresponding peptide. The experiment in a line: Lysis of cells pulsed with the corresponding peptide. The conditions noted are these: T-cell lines from PBMCs of HLA-A3 patients vaccinated with PANVAC. Format: cell-based, human.
In experiment [5] the test system is MUC1-specific T-cell lines. The class given is cell-based, human.
Experiment [6] has as its system MUC1-specific T-cell lines. The experiment in a line: IFN-γ production by peptide-specific T-cell lines. The class given is cell-based, human. Conditions: ranking among 5 potential MUC1-C agonist epitopes.
The subject of experiment [7] is tumor cells endogenously expressing the native antigen. Nature of the experiment: Ranking of killing by peptide-specific CTL. The conditions noted are these: ranking among 5 potential MUC1-C agonist epitopes. The class given is cell-based, human.
Setting [8] is: HLA-A24, T-cell line T-C7A stimulated 24h with B-cells pulsed with the peptide.
Setting [9] is: HLA-A24, T-cell line T-C7 stimulated 24h with B-cells pulsed with the peptide.

“Also recorded” adds a separate entry of the source. Like-named read-outs stand apart in the source and are kept apart here.

With ALAIVYLIAL [Peptide C1], the Actual binding in experiment [1] was determined as 249 MFI.

As for ALAIVYLIAL [Peptide C4], in experiment [2], the “generation of T-cell lines with the peptide” value (shortened to “generation of T-cell lines”) is on record as “grew poorly”.

Regarding ALFIVYLIAK [Peptide C4A], the “generation of T-cell lines” value in experiment [2] was “could be derived”. For the same sequence, in experiment [3], the “binding of T-cell line to corresponding tetramer” value came to 20.2% and the “binding of T-cell line to the control tetramer” value is less than 0.04%. Also, the “lysis of C1RA3 cells pulsed with the corresponding peptide” value in experiment [4] is “seen”.

Take APDTRPAPG [Peptide V2]: the Actual binding in experiment [1] turned out to be 210 MFI. Besides, the “generation of T-cell lines” value in experiment [2] was “could not be generated”.

With KYHPMSEYAL [Peptide C6A], in experiment [2], the “generation of T-cell lines” value is “could be generated”. Besides, the IFN-γ in experiment [5] (stimulation of the T-cell line generated with the C6A agonist peptide) is given as 2,651 pg/ml/10^5 cells.

On to KYTNPAVAL [Peptide C7A], for which the “generation of T-cell lines” value in experiment [2] is “could be generated”. In experiment [5] (setting [8]), the GM-CSF stood at 910 pg/ml/2.5 × 10^5 T cells, the IFN-γ is on record as 2,000 pg/ml/2.5 × 10^5 T cells, the IL-2 is less than 2.4 pg/ml/2.5 × 10^5 T cells and the IL-6 stood at 40 pg/ml/2.5 × 10^5 T cells. Moreover, in experiment [5] (setting [8]), the IL-8 stood at 360 pg/ml/2.5 × 10^5 T cells, the IL-10 amounted to 375 pg/ml/2.5 × 10^5 T cells and the TNFα is given as 70 pg/ml/2.5 × 10^5 T cells. Moreover, in experiment [5] (setting [9]), the GM-CSF stood at 300 pg/ml/2.5 × 10^5 T cells, the IFN-γ is reported as 1,279 pg/ml/2.5 × 10^5 T cells, the IL-2 is reported as less than 2.4 pg/ml/2.5 × 10^5 T cells and the IL-6 is 7.7 pg/ml/2.5 × 10^5 T cells. In experiment [5] (setting [9]), this sequence yielded an IL-8 of 7.3 pg/ml/2.5 × 10^5 T cells, an IL-10 of 45 pg/ml/2.5 × 10^5 T cells and a TNFα of 30 pg/ml/2.5 × 10^5 T cells.

Regarding SLFRSPYEK [Peptide C5A], in experiment [2], the “generation of T-cell lines” value was “could be derived”. In addition, in experiment [3], the “binding of T-cell line to corresponding tetramer” value was found to be 16.2% and the “binding of T-cell line to the control tetramer” value is on record as less than 0.04%. In addition, the “lysis of C1RA3 cells pulsed with the corresponding peptide” value in experiment [4] is given as “seen”.

In experiment [1], SLSYTNPAV [Peptide C3] yielded an Actual binding of 326 MFI.

Sequence STAPPAHGV [Peptide V1] showed an Actual binding in experiment [1] of 166 MFI. Further, in experiment [2], the “generation of T-cell lines” value is given as “could not be generated”.

Consider STDRSPYEK [Peptide C5], for which the “generation of T-cell lines” value in experiment [2] is recorded as “grew poorly”.

In the case of SYTNPAVAA [Peptide C7], in experiment [2], the “generation of T-cell lines” value was “grew poorly; also recorded: could be generated”. In experiment [5] (setting [8]), the GM-CSF came to 215 pg/ml/2.5 × 10^5 T cells, the IFN-γ is on record as 680 pg/ml/2.5 × 10^5 T cells, the IL-2 is less than 2.4 pg/ml/2.5 × 10^5 T cells and the IL-6 is less than 2.4 pg/ml/2.5 × 10^5 T cells. Also, in experiment [5] (setting [8]), the IL-8 came out at 112 pg/ml/2.5 × 10^5 T cells, the IL-10 worked out at 92 pg/ml/2.5 × 10^5 T cells and the TNFα came out at 30 pg/ml/2.5 × 10^5 T cells. For the same sequence, in experiment [5] (setting [9]), the GM-CSF is listed as 237 pg/ml/2.5 × 10^5 T cells, the IFN-γ is given as 750 pg/ml/2.5 × 10^5 T cells, the IL-2 is recorded as less than 2.4 pg/ml/2.5 × 10^5 T cells and the IL-6 is on record as 6.4 pg/ml/2.5 × 10^5 T cells. In experiment [5] (setting [9]), this sequence showed an IL-8 of 6.8 pg/ml/2.5 × 10^5 T cells, an IL-10 of 25 pg/ml/2.5 × 10^5 T cells and a TNFα of 21 pg/ml/2.5 × 10^5 T cells.

For the sequence YLAIVYLIAL [Peptide C1A], in experiment [1], the Actual binding came to 245 MFI and the “T2-A2 binding (rank)” value was 5. Further, the “Level of IFN-γ produced by peptide-specific CTL (rank)” value (from here on “Level of IFN-γ produced”) in experiment [6] was found to be 3. Moreover, the “Level of killing by peptide-specific CTL (rank)” value (from here on “Level of killing”) in experiment [7] is 2.

Sequence YLAPPAHGV [Peptide V1A] came in with an Actual binding in experiment [1] of 486 MFI. Besides, the “generation of T-cell lines” value in experiment [2] is reported as “successfully generated”.

The sequence YLDTRPAPV [Peptide V2A] yielded an Actual binding in experiment [1] of 647 MFI. The “generation of T-cell lines” value in experiment [2] was “successfully generated”.

With YLIALAVCQC [Peptide C2], the Actual binding in experiment [1] was 211 MFI.

YLIALAVCQV [Peptide C2A]: in experiment [1], the Actual binding stood at 299 MFI and the “T2-A2 binding (rank)” value is 3. Moreover, the “Level of IFN-γ produced” value in experiment [6] was determined as 1. Also, the “Level of killing” value in experiment [7] amounted to 1.

As to YLLVLVCVLV [Peptide C9A], the “T2-A2 binding (rank)” value in experiment [1] is given as 4. In addition, the “Level of IFN-γ produced” value in experiment [6] is listed as “Negative”. The “Level of killing” value in experiment [7] is recorded as “Negative”.

Regarding YLSDVSVSDV [Peptide C8A], the “T2-A2 binding (rank)” value in experiment [1] amounted to 2. For the same sequence, the “Level of IFN-γ produced” value in experiment [6] came to 4. Further, the “Level of killing” value in experiment [7] was “Negative”.

With YLSYTNPAV [Peptide C3A], in experiment [1], the Actual binding was 342 MFI and the “T2-A2 binding (rank)” value came out at 1. Further, the “Level of IFN-γ produced” value in experiment [6] came out at 2. In addition, the “Level of killing” value in experiment [7] was 3.
